The values that follow are results of earlier work, collected in patent US4808590A (priority 1988, dated 1989).

The conditions of this data set: British Patent Specification Nos. 1,078,049 and 932,875; cited from earlier work.

As to `C=C1C[C@](OC)([C@H](O)C(=O)N[C@@H](OC)[C@@H]2C[C@@H](O)C(C)(C)[C@@H](C[C@@H](COC)OC)O2)O[C@H](C)[C@@H]1C` [Pederin], the antimitotic activity result is “shows antimitotic activity”.
